From publication PMC8777764, “Design, Synthesis, Biological Evaluation, and Molecular Modeling of 2-Difluoromethylbenzimidazole Derivatives as Potential PI3Kα Inhibitors” (Molecules, 2022)

Target: T1, PI3Kα (Homo sapiens, UniProt P42336)
T1 construct: gene PIK3CA
Assay: Kinase-Glo Plus luminescence kinase assay, […] ATP
Assay type: biochemical

T1 sequence (P42336 whole entry): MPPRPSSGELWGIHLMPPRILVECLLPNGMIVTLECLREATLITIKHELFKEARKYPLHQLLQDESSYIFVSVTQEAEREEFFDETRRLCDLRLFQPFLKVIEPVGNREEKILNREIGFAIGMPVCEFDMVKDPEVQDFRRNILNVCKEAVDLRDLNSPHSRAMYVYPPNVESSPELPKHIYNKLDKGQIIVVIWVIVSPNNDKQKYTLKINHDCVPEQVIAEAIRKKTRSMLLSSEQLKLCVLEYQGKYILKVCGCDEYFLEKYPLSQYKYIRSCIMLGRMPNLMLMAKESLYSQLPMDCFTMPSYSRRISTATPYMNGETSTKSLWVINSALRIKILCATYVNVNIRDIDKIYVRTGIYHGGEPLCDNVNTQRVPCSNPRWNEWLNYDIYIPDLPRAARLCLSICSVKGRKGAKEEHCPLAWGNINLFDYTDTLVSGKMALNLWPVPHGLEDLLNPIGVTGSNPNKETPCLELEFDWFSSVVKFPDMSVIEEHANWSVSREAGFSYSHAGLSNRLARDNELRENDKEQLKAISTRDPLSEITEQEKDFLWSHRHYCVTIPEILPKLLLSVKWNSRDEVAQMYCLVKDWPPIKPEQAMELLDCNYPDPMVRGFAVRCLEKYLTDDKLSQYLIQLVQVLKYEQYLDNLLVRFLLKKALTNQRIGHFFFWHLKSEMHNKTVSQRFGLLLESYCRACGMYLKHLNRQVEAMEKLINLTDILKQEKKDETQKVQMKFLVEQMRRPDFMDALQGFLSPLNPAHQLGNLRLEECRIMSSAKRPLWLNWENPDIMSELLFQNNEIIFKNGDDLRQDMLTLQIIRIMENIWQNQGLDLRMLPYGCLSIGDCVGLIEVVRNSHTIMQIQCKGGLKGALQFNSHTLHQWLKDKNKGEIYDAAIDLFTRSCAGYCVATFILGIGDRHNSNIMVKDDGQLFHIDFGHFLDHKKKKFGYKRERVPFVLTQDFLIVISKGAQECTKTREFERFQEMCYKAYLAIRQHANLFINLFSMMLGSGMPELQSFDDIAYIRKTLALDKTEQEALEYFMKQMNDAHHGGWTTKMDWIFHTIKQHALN

Row | Compound | IC50 [nM]
1 | COc1cccc2c1nc(C(F)(F)F)n2-c1nc(N2CCOCC2)nc(N(C)C2CCN(S(C)(=O)=O)CC2)n1 [compound 86, 4-(4-Methoxy-2-(trifluoromethyl)-1H-benzo[d]imidazol-1-yl)-N-methyl-N-(1-(methylsulfonyl)piperidin-4-yl)-6-morpholino-1,3,5-triazin-2-amine] | 22.8 ± 0.4
2 | CCOc1cccc2c1nc(C(F)(F)F)n2-c1nc(N2CCOCC2)nc(N(C)C2CCN(S(C)(=O)=O)CC2)n1 [compound 87, 4-(4-Ethoxy-2-(trifluoromethyl)-1H-benzo[d]imidazol-1-yl)-N-methyl-N-(1-(methylsulfonyl)piperidin-4-yl)-6-morpholino-1,3,5-triazin-2-amine] | 33.6 ± 2.7
